From US20220259656A1, “BLOOD BIOMARKER AND GENETIC MARKERS ASSOCIATED WITH RESPONSE TO CRTH2 RECEPTOR ANTAGONISTS” (Merck Sharp & Dohme Corp., priority 2019, published 2022)

Assays:
[1] = tested on: participants with persistent asthma uncontrolled on montelukast, positive for C allele of rs12748961 SNP; assay: Randomized, placebo-controlled, double-blind clinical study of Compound A added to montelukast; change from baseline in FEV1; type: in vivo, human; details: for Average Change From Baseline FEV1 (L), Mean: Cmpd A 150 mg + ML
Method: The inventors conducted a world-wide, randomized, placebo-controlled, double-blind, parallel group study of the CRTH2 receptor antagonist, {(7R)-4-fluoro-7-[5-(4-fluorobenzyl)-1H-[1,2,3]triazol-1-yl]-6,7,8,9-tetrahydropyrido[1,2-a]indol-10-yl}-acetic acid (hereinafter “Compound A”) in participants with persistent asthma who remained uncontrolled while being maintained on montelukast (ML). At Prescreening Visit 1, participants were tested for the presence of the rs 12748961 SNP to determine eligibility. The primary efficacy analysis compared the effect of Compound A to placebo, when each was added to montelukast, on the average change from baseline in FEV1 using a constrained longitudinal data analysis model.
Eligible participants were male and female participants between the ages of 18 and 65 with persistent asthma for at least 1 year and a documented SNP+test result. Participants also must have had acceptable lung function at Visit 2 and Visit 4 and evidence of reversibility of airway obstruction. Approximately 139 eligible participants whose asthma was uncontrolled during a run-in period of approximately 2 to 4 weeks entered a 6-week double-blind treatment period and were randomized in a 1:1 ratio to receive either Compound A 150 mg and montelukast 10 mg or Compound A 150 mg matching-image placebo and montelukast 10 mg. Randomization was stratified according to the number of C alleles (having either 1 or 2 copies of the allele) at the rs12748961 SNP. The total study duration for each participant was up to 17 weeks.
FIG. 2 is a graphical depiction of the study design. Briefly, salient activities occurring during the study are described below. During a pre-screening visit, a blood sample is collected to assess for the presence of the C-allele of rs12748961 SNP. At the start of the pre-study period, eligible subjects receiving Long-Acting Beta-Agonist (LABA) therapy were asked to discontinue the LABA. During run-in period (approximately 2 to 4 weeks), subjects receive single-blind Compound A 150 mg matching-image placebo and open-label montelukast 10 mg. Subjects taking asthma controller therapies prior to Visit 2 were asked to discontinue or taper off these pre-study medications before randomization while receiving open-label montelukast 10 mg. During the treatment period (approximately 6 weeks): Subjects received double-blind treatment of Compound A 150 mg plus montelukast 10 mg; or Compound A 150 mg matching-image placebo plus montelukast 10 mg.
In order to identify patient groups susceptible to treatment response, the inventors conducted an analysis on pre-specified patient subgroups in the study based on (a) demographic variables (including age, gender, race, weight, height, and body mass index) and (b) baseline characteristics (including duration of asthma, age diagnosed of asthma, asthma controller pre- trial, ICS use, blood eosinophil count, baseline ACQ-6, and smoking history), (c) prior and secondary diagnoses, (d) prior and concomitant therapies, and (e) the number of C alleles of the rs12748961 SNP on asthmatic study subjects who had undergone a clinical trial with a CRTH2 receptor antagonist and the leukotriene antagonist montelukast. The analysis sought to assess whether a mean treatment difference varies across patient subgroups defined by several pre-specified characteristics and who also tested positive for at least one copy of the C allele of the rs12748961 SNP.

[2] = tested on: patient population afflicted with eosinophilic severe asthma; details: patients with eosinophilic severe asthma, Phase IIa; cited from earlier work
allergic rhinitis = details: in vivo; cited from earlier work
[3] = Cmpd A 150 mg + montelukast 10 mg, full study population

For O=C(O)Cc1c2n(c3c(F)cccc13)C[C@H](n1nncc1Cc1ccc(F)cc1)CC2 [Compound A, {(7R)-4-fluoro-7-[5-(4-fluorobenzyl)-1H-[1,2,3]triazol-1-yl]-6,7,8,9-tetrahydropyrido[1,2-a]indol-10-yl}-acetic acid], the “Estimated Differences with placebo + ML, Difference in LS Means, FEV1 at Week 4 and Week 6” value ([1]; Cmpd A 150 mg + ML vs. placebo + ML, full study population) was 107 mL, the “Estimated Differences With Placebo + ML, LS Mean, FEV1” value ([1]; Cmpd A 150 mg + ML vs. placebo + ML, subgroup baseline eosinophil count <0.30 × 10^9/L) was 63 mL and the “Estimated Differences With Placebo + ML, LS Mean, FEV1” value ([1]; Cmpd A 150 mg + ML vs. placebo + ML, subgroup baseline eosinophil count >0.30 × 10^9/L) was 193 mL. The “Average Change From Baseline FEV1 (L), Mean” value ([1]; subgroup baseline eosinophil count <0.30 × 10^9/L) was 0.166 L, the “Average Change From Baseline FEV1 (L), Mean” value ([1]; subgroup baseline eosinophil count >0.30 × 10^9/L) was 0.139 L and the “Average Change from Baseline in FEV1 (L) at Week 4 and Week 6, Mean” value [1, 3] was 0.156 L. For the same compound, the “Average Change from Baseline in FEV1 (L) at Week 4 and Week 6, Median” value [1, 3] was 0.091 L, the “FEV1 (L) Average at Week 4 and Week 6, Mean” value ([1]; Cmpd A 150 mg + montelukast 10 mg, full study population, 6-week treatment) was 2.426 L and the “Average Change from Baseline in FEV1 (L) at Week 4 and Week 6, LS Mean” value ([1]; Cmpd A 150 mg + montelukast 10 mg, full study population, cLDA model) was 0.152 L.

For Cc1c(CC(=O)O)c2cccnc2n1Cc1ccc(S(C)(=O)=O)cc1C(F)(F)F [fevipiprant, 2-(2-methyl-1-(4-(methylsulfonyl)-2-(trifluoromethyl)benzyl)-1H-pyrrolo[2,3-b]pyridin-3-yl)acetic acid], the sputum eosinophils [2] is given as “reduction of sputum eosinophils”.

In the case of O=C(O)CCn1c2c(c3ccccc31)C[C@H](NS(=O)(=O)c1ccc(F)cc1)CC2 [Ramatroban, 3-((3R)-3-{[(4-fluorophenyl)sulfonyl]amino}-1,2,3,4-tetrahydro-9H-carbazol-9-yl)propanoic acid], the “efficacy in allergic rhinitis” value (allergic rhinitis) is listed as “some degree of efficacy”.
